pIC50: −log10 of the molar value. Values joined by “and” are separate entries in the source; they are usually repeats but may differ in a detail not shown here. Equal values may be shown once.
What was measured:
[1] = system: DLD1 BRCA2 -/- cells; assay: Clonogenic assay; assay type: cell-based; settings: for Average number of colonies counted / Normalized colonies (0 micro M = 100): per experiment
Outline: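 Cells seeded at low density (300–1000 per well, by plate size and genotype), medium changed every 2 days, colonies grown 10–12 days. Fixed in water:ethanol:acetic acid, stained with 0.5% crystal violet, then counted; IC50 from ≥3 independent experiments, mean ± SEM.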

[2] = molecular target: T1, Polθ-pol (Homo sapiens, UniProt O75417); assay: Cy5 fluorescence Polθ-pol DNA synthesis (strand displacement) IC50 assay; assay type: biochemical; settings: Polθ-pol DNA synthesis, Cy5 fluorescence
T1 construct: purified recombinant human Polθ-pol (comprising amino acid residues 1792–2590); made in house
T1 sequence (O75417 1792-2590): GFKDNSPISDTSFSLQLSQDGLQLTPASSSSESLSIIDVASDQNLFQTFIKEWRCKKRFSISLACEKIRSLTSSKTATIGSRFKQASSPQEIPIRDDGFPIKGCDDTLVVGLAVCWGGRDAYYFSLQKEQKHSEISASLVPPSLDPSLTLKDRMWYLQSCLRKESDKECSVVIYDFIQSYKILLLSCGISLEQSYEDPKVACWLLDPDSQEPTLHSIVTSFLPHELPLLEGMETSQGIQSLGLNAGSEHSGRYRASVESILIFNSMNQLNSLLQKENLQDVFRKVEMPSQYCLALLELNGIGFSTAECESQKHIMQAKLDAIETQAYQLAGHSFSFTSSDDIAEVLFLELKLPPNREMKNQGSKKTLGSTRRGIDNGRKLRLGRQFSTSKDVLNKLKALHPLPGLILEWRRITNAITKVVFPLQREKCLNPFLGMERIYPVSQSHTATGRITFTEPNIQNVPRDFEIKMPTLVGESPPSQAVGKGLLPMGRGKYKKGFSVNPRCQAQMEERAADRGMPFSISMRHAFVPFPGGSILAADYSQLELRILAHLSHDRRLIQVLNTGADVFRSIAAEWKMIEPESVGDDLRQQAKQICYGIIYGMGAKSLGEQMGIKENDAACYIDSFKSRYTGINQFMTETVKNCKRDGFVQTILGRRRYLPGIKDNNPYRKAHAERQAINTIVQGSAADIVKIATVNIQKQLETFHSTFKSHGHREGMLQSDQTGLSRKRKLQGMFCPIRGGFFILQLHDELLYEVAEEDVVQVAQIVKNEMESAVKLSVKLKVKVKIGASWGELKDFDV
Outline: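 Recombinant human Polθ-pol (aa 1792–2590, 5 nM) extends 60 nM Cy5/quencher primer-template with 50 uM dNTPs in 25 mM Tris pH 7.8, 10 mM MgCl2, 2.5% DMSO at 37 °C. After 18 min, stopped with 20 mM EDTA; Cy5 fluorescence read, 7-point series in triplicate, inhibition from the mean.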

[3] = LogP; assay type: physicochemical; settings: method not stated
[4] = system: DLD1 Parental cells; assay: Clonogenic assay; assay type: cell-based; settings: for Normalized colonies (0 micro M = 100): per experiment
Outline: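 Colony formation by BRCA-deficient, PALB2-mutant and wild-type cells (300–1000 cells/well) and MEFs (300 cells/well) over 10–12 days, medium changed every 2 days. Colonies fixed, stained with 0.5% crystal violet and counted; IC50 from 3 or more independent experiments.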

For `CN(C(=O)Oc1c(N2CCN(CCO)C2=O)cc(C(F)(F)F)cc1C(F)(F)F)c1ccc(F)cc1` [RTx-161], the pIC50 ([1]; Homo sapiens, DLD-1, read-out: IC50 clonogenic survival) was about 6.00, the “Normalized colonies, pooled Average of 3 experiments” value (“Normalized colonies, pooled Average” below) ([1]; RTX-161 0.185 micro M) was 84.318% and the “Average number of colonies counted” value ([1]; RTX-161 0.185 micro M) was 67.3333 and 120 and 63.3333. For the same compound, the “Normalized colonies (0 micro M = 100)” value ([1]; RTX-161 0.185 micro M) was 74.5387% and 90.4523% and 87.963%, the “Normalized colonies, pooled Average” value ([1]; RTX-161 0.555 micro M) was 72.4221% and the “Average number of colonies counted” value ([1]; RTX-161 0.555 micro M) was 58.6667 and 97.6667 and 56.6667. For the same compound, the “Normalized colonies (0 micro M = 100)” value ([1]; RTX-161 0.555 micro M) was 64.9446% and 73.6181% and 78.7037%, the “Normalized colonies, pooled Average” value ([1]; RTX-161 1.67 micro M) was 40.9897% and the “Average number of colonies counted” value ([1]; RTX-161 1.67 micro M) was 28.3333 and 49.6667 and 39. The “Normalized colonies (0 micro M = 100)” value ([1]; RTX-161 1.67 micro M) was 31.3653% and 37.4372% and 54.1667%, the “Normalized colonies, pooled Average” value ([1]; RTX-161 5 micro M) was 19.5991% and the “Average number of colonies counted” value ([1]; RTX-161 5 micro M) was 11.6667 and 20.3333 and 22. The “Normalized colonies, pooled Average” value ([1]; RTX-161 15 micro M) was 11.8019%, the “selective killing / synthetic lethality in BRCA2-null DLD1 cells” value ([1]; colony survival, versus BRCA2-WT) was “selective killing” and the pIC50 [2] was 8.39 and 8.22 to 8.40. The logP [3] was 3.6, the “effect in BRCA2-WT cells” value ([4]; DLD1, colony survival) was “little to no effect” and the “Normalized colonies, pooled Average” value ([4]; RTX-161 0.185 micro M) was 97.5686%. For the same compound, the “Normalized colonies (0 micro M = 100)” value ([4]; RTX-161 0.185 micro M) was 97.878% and 98.6301% and 96.1977%, the “Normalized colonies, pooled Average” value ([4]; RTX-161 0.555 micro M) was 95.8582% and the “Normalized colonies (0 micro M = 100)” value ([4]; RTX-161 0.555 micro M) was 95.8175% and 96.5517% and 95.2055%. The “Normalized colonies, pooled Average” value ([4]; RTX-161 1.67 micro M) was 94.2875%, the “Normalized colonies (0 micro M = 100)” value ([4]; RTX-161 1.67 micro M) was 93.5361% and 95.4907% and 93.8356% and the “Normalized colonies, pooled Average” value ([4]; RTX-161 5 micro M) was 93.9179%. For the same compound, the “Normalized colonies (0 micro M = 100)” value ([4]; RTX-161 5 micro M) was 93.1559% and 96.817% and 91.7808%, the “Normalized colonies, pooled Average” value ([4]; RTX-161 15 micro M) was 93.9599% and the “Normalized colonies (0 micro M = 100)” value ([4]; RTX-161 15 micro M) was 90.8745% and 94.4297% and 96.5753%.

From paper PMC10997755, “Discovery of a small-molecule inhibitor that traps Polθ on DNA and synergizes with PARP inhibitors” (Nature Communications, 2024)
